{"source": "patent US9085555B2", "about": "“Complement pathway modulators and uses thereof” (priority 2011, dated 2015)"}
{"target": "Factor D (Homo sapiens (Human), UniProt P00746)", "sequence (P00746 26-253)": "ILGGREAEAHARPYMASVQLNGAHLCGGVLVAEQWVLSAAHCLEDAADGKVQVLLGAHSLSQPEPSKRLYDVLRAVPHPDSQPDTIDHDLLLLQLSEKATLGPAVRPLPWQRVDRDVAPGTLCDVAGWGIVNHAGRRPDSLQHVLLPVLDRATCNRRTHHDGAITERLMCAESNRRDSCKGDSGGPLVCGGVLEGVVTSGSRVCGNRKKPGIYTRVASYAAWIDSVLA", "experiment": "biochemical", "type": "biochemical", "conditions": "read-out: IC50", "units": {"IC50": "nM"}}
{"smiles": "Cn1nc(-c2ccccc2)cc1NC(=O)[C@@H]1CCCN1C(=O)Nc1cn(C(N)=O)c2ccccc12", "note": "[Example 199, (S)-Pyrrolidine-1,2-dicarboxylic acid 1-[(1-carbamoyl-1H-indol-3-yl)-amide] 2-[(2-methyl-5-phenyl-2H-pyrazol-3-yl)-amide]]", "IC50": 8650}
{"smiles": "COC(=O)[C@H]1C[C@@H](C(=O)NCc2cccc(Cl)c2F)N(C(=O)Nc2cn(C(N)=O)c3ccccc23)C1", "note": "[Example 200, (3S,5S)-1-(1-Carbamoyl-1H-indol-3-ylcarbamoyl)-5-(3-chloro-2-fluoro-benzylcarbamoyl)-pyrrolidine-3-carboxylic acid methyl ester]", "IC50": 25}
{"smiles": "NC(=O)n1cc(NC(=O)N2C[C@](O)(CO)C[C@H]2C(=O)NCc2cccc(Cl)c2F)c2ccccc21", "note": "[Example 202, (2S,4S)-4-Hydroxy-4-hydroxymethyl-pyrrolidine-1,2-dicarboxylic acid 1-[(1-carbamoyl-1H-indol-3-yl)-amide] 2-(3-chloro-2-fluoro-benzylamide)]", "IC50": 450}
{"smiles": "NC(=O)n1cc(NC(=O)N2[C@@H]3C[C@@H]3C[C@H]2C(=O)N[C@H](CO)c2cccc(Cl)c2F)c2ccccc21", "note": "[Example 203, (1R,3S,5R)-2-Aza-bicyclo[3.1.0]hexane-2,3-dicarboxylic acid 2-[(1-carbamoyl-1H-indol-3-yl)-amide] 3-{[(S)-1-(3-chloro-2-fluoro-phenyl)-2-hydroxy-ethyl]-amide}]", "IC50": 6}
{"smiles": "CO[C@H]1[C@@H](C(=O)NCc2cccc(Cl)c2F)N(C(=O)Nc2cn(C(N)=O)c3ccccc23)C[C@@H]1F", "note": "[Example 204, (2S,3S,4S)-4-Fluoro-3-methoxy-pyrrolidine-1,2-dicarboxylic acid 1-[(1-carbamoyl-1H-indol-3-yl)-amide] 2-(3-chloro-2-fluoro-benzylamide)]", "IC50": 7}
{"smiles": "C[C@@]1(F)C[C@@H](C(=O)NCc2cccc(Cl)c2F)N(C(=O)Nc2cn(C(N)=O)c3ccccc23)C1", "note": "[Example 205, (2S,4R)-4-Fluoro-4-methyl-pyrrolidine-1,2-dicarboxylic acid 1-[(1-carbamoyl-1H-indol-3-yl)-amide] 2-(3-chloro-2-fluoro-benzylamide)]", "IC50": 14}
{"smiles": "CC(=O)N[C@H]1[C@@H](C(=O)NCc2cccc(Cl)c2F)N(C(=O)Nc2cn(C(N)=O)c3ccccc23)C[C@@H]1F", "note": "[Example 206, (2S,3S,4S)-3-Acetylamino-4-fluoro-pyrrolidine-1,2-dicarboxylic acid 1-[(1-carbamoyl-1H-indol-3-yl)-amide] 2-(3-chloro-2-fluoro-benzylamide)]", "IC50": 187}
{"smiles": "NC(=O)n1cc(NC(=O)N2C[C@@H]3C[C@@H]3[C@H]2C(=O)N[C@H](CO)c2cccc(Cl)c2F)c2ccccc21", "note": "[Example 207, (1S,2S,5R)-3-Azabicyclo[3.1.0]hexane-2,3-dicarboxylic acid 3-[(1-carbamoyl-1H-indol-3-yl)-amide] 2-{[(S)-1-(3-chloro-2-fluoro-phenyl)-2-hydroxy-ethyl]-amide}]", "IC50": 321}
{"smiles": "NC(=O)n1cc(NC(=O)N2CC[C@H](F)[C@H]2C(=O)NCc2cccc(Cl)c2F)c2ccccc21", "note": "[Example 208, (2R,3S)-3-Fluoro-pyrrolidine-1,2-dicarboxylic acid 1-[(1-carbamoyl-1H-indol-3-yl)-amide] 2-(3-chloro-2-fluoro-benzylamide)]", "IC50": 29}
{"smiles": "NC(=O)n1cc(NC(=O)N2C[C@](F)(CN3CCOCC3)C[C@H]2C(=O)NCc2cccc(Cl)c2F)c2ccccc21", "note": "[Example 209, (2S,4R)-4-Fluoro-morpholin-4-ylmethyl-pyrrolidine-1,2-dicarboxylic acid 1-[(1-carbamoyl-1H-indol-3-yl)-amide] 2-(3-chloro-2-fluoro-benzylamide)]", "IC50": 1900}
{"smiles": "NC(=O)n1cc(NC(=O)N2C[C@H]3C[C@H]3[C@H]2C(=O)NCc2cccc(Cl)c2F)c2ccccc21", "note": "[Example 210, (1R,2S,5S)-3-Aza-bicyclo[3.1.0]hexane-2,3-dicarboxylic acid 3-[(1-carbamoyl-1H-indol-3-yl)-amide] 2-(3-chloro-2-fluoro-benzylamide)]", "IC50": 22}
{"smiles": "CC(=O)N[C@@H]1CN(C(=O)Nc2cn(C(N)=O)c3ccccc23)[C@H](C(=O)NCc2cccc(Cl)c2F)[C@H]1F", "note": "[Example 211, (2R,3S,4R)-4-Acetylamino-3-fluoro-pyrrolidine-1,2-dicarboxylic acid 1-[(1-carbamoyl-1H-indol-3-yl)-amide] 2-(3-chloro-2-fluoro-benzylamide)]", "IC50": 1320}
{"smiles": "NC(=O)n1cc(NC(=O)N2C[C@H]3C[C@H]3[C@H]2C(=O)N[C@H](CO)c2cccc(Cl)c2F)c2ccccc21", "note": "[Example 212, (1R,2S,5S)-3-Azabicyclo[3.1.0]hexane-2,3-dicarboxylic acid 3-[(1-carbamoyl-1H-indol-3-yl)-amide] 2-{[(S)-1-(3-chloro-2-fluoro-phenyl)-2-hydroxy-ethyl]-amide}]", "IC50": 10}
{"smiles": "NC(=O)n1cc(NC(=O)N2CC[C@@H](O)[C@H]2C(=O)NCc2cccc(Cl)c2F)c2ccccc21", "note": "[Example 213, (2S,3R)-3-Hydroxy-pyrrolidine-1,2-dicarboxylic acid 1-[(1-carbamoyl-1H-indol-3-yl)-amide] 2-(3-chloro-2-fluoro-benzylamide)]", "IC50": 12}
{"smiles": "COC[C@@]12C[C@@H]1N(C(=O)Nc1cn(C(N)=O)c3ccccc13)[C@H](C(=O)NCc1cccc(Cl)c1F)C2", "note": "[Example 214, (1S,3S,5R)-5-Methoxymethyl-2-aza-bicyclo[3.1.0]hexane-2,3-dicarboxylic acid 2-[(1-carbamoyl-1H-indol-3-yl)-amide] 3-(3-chloro-2-fluoro-benzylamide)]", "IC50": 1570}
{"smiles": "NC(=O)n1cc(NC(=O)N2C[C@H](F)C[C@H]2C(=O)NCc2cncc(F)c2)c2ccccc21", "note": "[Example 215, (2S,4R)-4-Fluoro-pyrrolidine-1,2-dicarboxylic acid 1-[(1-carbamoyl-1H-indol-3-yl)-amide] 2-[(5-fluoro-pyridin-3-ylmethyl)-amide]]", "IC50": 386}
{"smiles": "COc1ccc2c(NC(=O)N3C4CC4C[C@H]3C(=O)NCc3cccc(Cl)c3F)cn(C(N)=O)c2c1", "note": "(stereo partly drawn) [Example 216, (1R,3S,5R)-2-Aza-bicyclo[3.1.0]hexane-2,3-dicarboxylic acid 2-[(1-carbamoyl-6-methoxy-1H-indol-3-yl)-amide] 3-(3-chloro-2-fluoro-benzylamide)]", "IC50": 65}
{"smiles": "NC(=O)n1cc(NC(=O)N2[C@@H]3C[C@@H]3C[C@H]2C(=O)N[C@H](CO)c2cccc(Br)c2)c2ccccc21", "note": "[Example 217, (1R,3S,5R)-2-Azabicyclo[3.1.0]hexane-2,3-dicarboxylic acid 3-{[(S)-1-(3-bromo-phenyl)-2-hydroxy-ethyl]-amide} 2-[(1-carbamoyl-1H-indol-3-yl)-amide]]", "IC50": 41}
{"smiles": "COC(=O)c1cccc(NC(=O)[C@@H]2CCCN2C(=O)Nc2cn(C(N)=O)c3ccccc23)c1", "note": "[Example 219, 3-{[(S)-1-(1-Carbamoyl-1H-indol-3-ylcarbamoyl)-pyrrolidine-2-carbonyl]-amino}-benzoic acid methyl ester]", "IC50": 1850}
{"smiles": "NC(=O)n1cc(NC(=O)N2CCCC[C@H]2C(=O)NCc2cccc(Cl)c2F)c2ccccc21", "note": "[Example 220, (S)-Piperidine-1,2-dicarboxylic acid 1-[(1-carbamoyl-1H-indol-3-yl)-amide] 2-(3-chloro-2-fluoro-benzylamide)]", "IC50": 233}
